According to ChEMBL document CHEMBL1151009, “Synthesis and pharmacological evaluation of combined Thromboxane receptor antagonists/thromboxane synthase inhibitors: Pyridine-containing amino-prostanoids” (Bioorg Med Chem Lett, 1991):

Assays:
Thromboxane A2 receptor [1] = molecular target: T1, Thromboxane A2 receptor (Rattus norvegicus, UniProt P34978); test: In vitro thromboxane A2 receptor antagonism through inhibition of U-46619-induced contraction of rat isolated thoracic aortic strip; format: functional; conditions: read-out: pA2 (converted)
T1 sequence (P34978 whole entry): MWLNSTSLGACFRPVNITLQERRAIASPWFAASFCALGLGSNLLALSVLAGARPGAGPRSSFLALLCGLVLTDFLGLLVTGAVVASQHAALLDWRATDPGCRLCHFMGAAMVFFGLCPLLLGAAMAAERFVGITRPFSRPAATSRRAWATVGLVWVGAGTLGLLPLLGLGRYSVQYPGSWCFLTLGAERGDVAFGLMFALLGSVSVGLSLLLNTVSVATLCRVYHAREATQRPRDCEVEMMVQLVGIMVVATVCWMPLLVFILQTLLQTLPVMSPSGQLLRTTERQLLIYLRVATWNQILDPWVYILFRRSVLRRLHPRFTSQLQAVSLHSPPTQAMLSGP

Thromboxane A2 receptor [2] = molecular target: T2, Thromboxane A2 receptor (Homo sapiens, UniProt P21731); test: In vitro thromboxane A2 receptor antagonism through inhibition of U-46619-induced platelet aggregation in human whole blood.; format: functional, tissue-based; conditions: read-out: pA2 (converted)
T2 sequence (P21731 whole entry): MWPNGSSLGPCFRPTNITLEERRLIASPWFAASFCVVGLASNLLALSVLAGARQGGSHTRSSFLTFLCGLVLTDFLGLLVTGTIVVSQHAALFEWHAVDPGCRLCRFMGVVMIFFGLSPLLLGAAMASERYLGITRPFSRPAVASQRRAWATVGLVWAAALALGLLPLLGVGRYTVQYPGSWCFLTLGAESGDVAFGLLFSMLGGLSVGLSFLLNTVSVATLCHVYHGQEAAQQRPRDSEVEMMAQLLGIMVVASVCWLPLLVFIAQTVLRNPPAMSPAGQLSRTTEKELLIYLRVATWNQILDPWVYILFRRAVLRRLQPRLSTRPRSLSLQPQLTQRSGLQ

Thromboxane-A synthase = molecular target: T3, Thromboxane-A synthase (Homo sapiens, UniProt P24557); test: In vitro TXA2 synthase antagonism through inhibition of collagen induced thromboxane-A2 production in human citreated whole blood; format: functional, tissue-based
T3 sequence (P24557 whole entry): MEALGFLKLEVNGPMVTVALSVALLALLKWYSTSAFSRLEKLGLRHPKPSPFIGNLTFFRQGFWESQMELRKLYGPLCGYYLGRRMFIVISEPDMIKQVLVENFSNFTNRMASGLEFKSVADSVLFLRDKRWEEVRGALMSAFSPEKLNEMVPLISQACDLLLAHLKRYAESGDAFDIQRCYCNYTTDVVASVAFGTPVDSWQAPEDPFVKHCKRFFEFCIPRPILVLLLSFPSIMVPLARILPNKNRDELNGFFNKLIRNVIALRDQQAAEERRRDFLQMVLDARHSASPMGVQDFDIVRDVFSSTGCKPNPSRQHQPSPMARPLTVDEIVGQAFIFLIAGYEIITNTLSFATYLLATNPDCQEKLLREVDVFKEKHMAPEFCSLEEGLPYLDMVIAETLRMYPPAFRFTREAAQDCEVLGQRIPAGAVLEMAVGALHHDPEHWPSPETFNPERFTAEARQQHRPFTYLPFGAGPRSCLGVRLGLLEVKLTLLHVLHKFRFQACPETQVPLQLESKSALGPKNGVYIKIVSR

Row | Compound | Kb (Thromboxane A2 receptor [1]) | Kb (Thromboxane A2 receptor [2]) | IC50 (Thromboxane-A synthase)
1 | CCc1ccncc1-c1ccc(CO[C@@H]2CC[C@H](N3CCCCCC3)[C@H]2OC/C=C\CCC(=O)O)cc1 | 10 nM | 1 nM | 2510 nM
2 | O=C(O)CCCCO/N=C(/c1cccnc1)c1cccc(C(F)(F)F)c1 [RIDOGREL] | 1260 nM | 3980 nM | 31.6 nM
3 | O=C(O)CC/C=C\CO[C@H]1[C@H](OCc2ccc(-c3ccncc3CO)cc2)CC[C@@H]1N1CCCCCC1 | 15.8 nM | 3.16 nM | –
4 | O=C(O)CC/C=C\CO[C@H]1[C@H](OCc2ccc(-c3ccncc3)cc2)CC[C@@H]1N1CCCCCC1 | 79.4 nM | 10 nM | 631 nM
5 | O=C(O)CC/C=C\CO[C@H]1[C@H](OCc2ccc(-c3cnccc3CO)cc2)CC[C@@H]1N1CCCCCC1 | 12.6 nM | 3.16 nM | 1580 nM
6 | O=C(O)CC/C=C\CO[C@H]1[C@H](OCc2ccc(-c3cccnc3CO)cc2)CC[C@@H]1N1CCCCCC1 | 3.16 nM | 3.16 nM | > 10000 nM
7 | O=C(O)CCCC/C=C(\c1ccccc1)c1cccnc1 [(E)-ISBOGREL] | 6310 nM | 15800 nM | –
8 | O=C(O)CC/C=C\CO[C@H]1[C@H](OCc2ccc(-c3cnccc3CCO)cc2)CC[C@@H]1N1CCCCCC1 | 3.16 nM | 3.16 nM | > 10000 nM
9 | O=C(O)CC/C=C\CO[C@H]1[C@H](OCc2ccc(-c3cncc(CO)c3)cc2)CC[C@@H]1N1CCCCCC1 | 25.1 nM | 6.31 nM | > 10000 nM
10 | CCCCc1ccncc1-c1ccc(CO[C@@H]2CC[C@H](N3CCCCCC3)[C@H]2OC/C=C\CCC(=O)O)cc1 | 10 nM | 3.98 nM | 100 nM
11 | CC(C)(C)c1ccncc1-c1ccc(CO[C@@H]2CC[C@H](N3CCCCCC3)[C@H]2OC/C=C\CCC(=O)O)cc1 | 3.16 nM | 3.16 nM | > 10000 nM
12 | Cc1ccncc1-c1ccc(CO[C@@H]2CC[C@H](N3CCCCCC3)[C@H]2OC/C=C\CCC(=O)O)cc1 | 31.6 nM | 2.51 nM | 100 nM
13 | CCc1cnccc1-c1ccc(CO[C@@H]2CC[C@H](N3CCCCCC3)[C@H]2OC/C=C\CCC(=O)O)cc1 | 15.8 nM | 6.31 nM | 398 nM
14 | O=C(O)CC/C=C\CO[C@H]1[C@H](OCc2ccc(-c3cccnc3)cc2)CC[C@@H]1N1CCCCCC1 | 39.8 nM | 12.6 nM | 631 nM
15 | Cc1cnccc1-c1ccc(CO[C@@H]2CC[C@H](N3CCCCCC3)[C@H]2OC/C=C\CCC(=O)O)cc1 | 20 nM | 6.31 nM | 1580 nM
16 | CCCc1ccncc1-c1ccc(CO[C@@H]2CC[C@H](N3CCCCCC3)[C@H]2OC/C=C\CCC(=O)O)cc1 | 31.6 nM | 2.51 nM | 100 nM
